# Source: US20110045033A1, “Combination of Itriglumide and Proton Pump Inhibitors in the Treatment of Gastrointestinal and Related Disorders” (priority 2005, published 2011)
# Experiments:
# [1] = tested on: chronic model of reflux esophagitis in rats; test: Chronic acid reflux esophagitis in rat (forestomach ligation and pyloric stenosis); type: in vivo; conditions: 15 days; for Occurrence of Esophagitis: animals affected/surviving
# Description: The method was according to Omura N., et al. (Scand. J gastroenterol. 1999; 34:948-953) with slight modifications.
# Male Wistar rats, 10 weeks old, were kept in controlled animal room 1 week prior to use and fed with standard diet. A day before the experiment rats were deprived of food but allowed free access to water.
# This model consists of gastric outlet obstruction obtained by ligation of forestomach and pyloric stenosis. Rats were operated under air/halothane anaesthesia; after opening the abdomen with a median incision, the transitional region between forestomach and the glandular portion was ligated and then the forestomach was blocked with other two ligations. Pyloric stenosis were obtained by wrapping a duodenum near the pylorus with a piece (about 2 mm) of a catheter (3.5 mm inner diameter) as a ring. The ring was closed by thermocautery and fixed to the pylorus with a nylon thread. The abdomen was closed by suturing.
# After the operation the rats (10 animals per group) were deprived of diet for 48 h but had free access to water.
# Drugs were administered once a day, starting on day zero, by subcutaneous injection. During the experiment body weight as well as the mortality were recorded.
# The animals were killed 15 days later by overdose of ether inhalation. The abdomen was opened and the esophagus excised and placed on a cork plate. The presence and extension of esophagitis sites was evaluated by macroscopic observation. Each site of esophagitis was measured (mm of length×mm of width). Data were expressed as mm^2 of esophagitis area (mean area group).
# [2] = tested on: acute reflux esophagitis in pylorus-ligated rats; test: Acute reflux esophagitis in pylorus-ligated rats (macroscopic lesion index); type: in vivo, rat; set-up: key to Average Score lesions: lesion index 0 = no lesion to 6 = hemorrhage >40 mm or perforation; conditions: for % Effect vs. control / Average Score lesions: 3 h after ligation; for ED50: Rattus norvegicus, intraduodenal, drug administered separately, intraduodenally, from dose-response regression line, read-out: ED50 (dose which reduces of 50% the esophagus lesions)
# Experimental: Male rats of 175-200 g body weight were fasted for 24 hours prior the experiment. Water was allowed ad libitum. Under ether anaesthesia, the abdomen was incised along the midline, and both pylorus and limiting ridge (transitional region between the forestomach and corpus) were simultaneously ligated. Consequently, the total capacity of the stomach to hold gastric juice was greatly diminished, resulting in reflux of gastric juice into the esophagus. Following ligation of pylorus and limiting ridge, the test compounds were given intraduodenally (5 ml/kg), and the abdomen was closed by suturing. After 3 hours, rats were killed by ether overdose and the gastroesophageal portion was excised. The lesion in the thoracic esophagus was scored macroscopically, using a lesion index according to the following criteria: no lesion as 0; oedema as 1; reddening as 2; the length of hemorrhagic area <20 mm as 3; the length of hemorrhagic area 20-30 mm as 4; the length of hemorrhagic area 30-40 mm as 5; the length of hemorrhagic area >40 mm or perforation as 6.
# The doses of the tested compounds which reduce of 50% the esophagus lesions (ED50) were calculated from the dose-response regression line.
# [3] = Itriglumide 10 mg/kg s.c. once a day
# [4] = Itriglumide 2.5 mg/kg intraduodenally
# [5] = Itriglumide 5.0 mg/kg intraduodenally
# [6] = Itriglumide 10 mg/kg intraduodenally
# [7] = Itriglumide 20 mg/kg intraduodenally
# [8] = Omeprazole 0.5 mg/kg s.c. once a day
# [9] = Omeprazole 1 mg/kg s.c. once a day
# [10] = Omeprazole 2 mg/kg s.c. once a day
# [11] = Omeprazole 0.1 mg/kg intraduodenally
# [12] = Omeprazole 0.3 mg/kg intraduodenally
# [13] = Omeprazole 1.0 mg/kg intraduodenally
# [14] = Omeprazole 3.0 mg/kg intraduodenally
smiles,measurement,setting,value
"Cc1cc(C)c(NC(=O)C[C@H](CC(=O)O)c2cccc3ccccc23)c(C(=O)N2CCC3(CCCC3)CC2)c1 [Itriglumide, (R)-1-napthalenepropanoic acid-β[2[(2-(8-azaspiro[4.5.]dec-8-ylcarbonyl)4,6-dimethylphenyl]amino]-2-oxoethyl]]",% Protection vs. control,[1]; [3],42.1%
same,Survival Rate (%),[1]; [3],90%
same,Total average size of ulcers (mm^2),[1]; [3],33 mm^2
same,Occurrence of Esophagitis,[1]; [3],4/9
same,% Effect vs. control,[2]; [4],0%
same,Average Score lesions,[2]; [4],5.2
same,% Effect vs. control,[2]; [5],27.5%
same,Average Score lesions,[2]; [5],3.7
same,% Effect vs. control,[2]; [6],51.0%
same,Average Score lesions,[2]; [6],2.5
same,% Effect vs. control,[2]; [7],82.3%
same,Average Score lesions,[2]; [7],0.9
same,ED50,[2],9.1 mg/kg
COc1ccc2[nH]c([S+]([O-])Cc3ncc(C)c(OC)c3C)nc2c1 (centres unmarked) [Omeprazole],% Protection vs. control,[1]; [8],17.5%
same,Survival Rate (%),[1]; [8],80%
same,Total average size of ulcers (mm^2),[1]; [8],47 mm^2
same,Occurrence of Esophagitis,[1]; [8],6/8
same,% Protection vs. control,[1]; [9],28.0%
same,Survival Rate (%),[1]; [9],90%
same,Total average size of ulcers (mm^2),[1]; [9],41 mm^2
same,Occurrence of Esophagitis,[1]; [9],6/9
same,% Protection vs. control,[1]; [10],49.1%
same,Survival Rate (%),[1]; [10],90%
same,Total average size of ulcers (mm^2),[1]; [10],29 mm^2
same,Occurrence of Esophagitis,[1]; [10],3/9
same,ED50,"[1]; Rattus norvegicus, sc, 360 h, Omeprazole alone, s.c. once a day",2.2 mg/kg
same,% Effect vs. control,[2]; [11],3.4%
same,Average Score lesions,[2]; [11],5.6
same,% Effect vs. control,[2]; [12],0%
same,Average Score lesions,[2]; [12],5.8
same,% Effect vs. control,[2]; [13],17.2%
same,Average Score lesions,[2]; [13],4.8
same,% Effect vs. control,[2]; [14],53.4%
same,Average Score lesions,[2]; [14],2.7
same,ED50,[2],4.9 mg/kg
